These results are taken from US9422363B2, “Synthetic apolipoprotein E mimicking polypeptides and methods of use” (UAB RESEARCH FOUNDATION, priority 2007, dated 2016).

The subject of experiment [1] is 1% cholesterol fed NZW-rabbits. Put plainly: Plasma turbidity and aortic atherosclerosis (en face Oil Red O) in 1% cholesterol fed NZW rabbits. Format: in vivo, rabbit. How it is done: In another set of experiments it was noted that Ac-hE18A-NH2 clears the plasma turbidity in 1% cholesterol fed NZW-rabbits. 3 mg/kg of peptide was administered intravenously/week. The rabbits were sacrificed after 51 days from the start of diet. Aortas were harvested and en face analysis was done on Oil Red O stained tissue samples. […] This was associated with decrease in atherogenic lipoproteins and inhibition of atherosclerosis at day 51.

Experiment [2] concerns WHHL rabbits. Put plainly: Ac-hE18A-NH2 in WHHL rabbits: plasma PON, lipid hydroperoxides, cholesterol, endothelial function. The note with it: plasma of WHHL rabbits; p<0.05; FIG. 1. Format: in vivo, rabbit. The source says: These rabbits have defective LDL receptors and therefore have increased atherogenic lipoproteins (mainly LDL). […] This was associated with improved aortic endothelial function. This improvement in endothelial function was mediated in part by increase in PON activity with associated decrease in plasma lipid hydroperoxide (FIG. 1). […] PON is an anti-oxidant enzyme associated with HDL and is responsible for scavenging LOOH in plasma. The lipid lowering effects of Ac-hE18A-NH2 in 1% cholesterol fed NZW-rabbits have also been shown. These animals have elevated cholesterol that are rich in VLDL type of particles.

In experiment [3] the test system is WHHL rabbits. The following applies: single administration; cited from earlier work.
The test system of experiment [4] is 1% cholesterol fed NZW-rabbits. Nature of the experiment: Plasma cholesterol in high fat (1% cholesterol) diet rabbits. Format: in vivo, rabbit. The following applies: intravenously two times; end of 14 days (21 days after initiation of atherogenic diet); n=4; control about 2000 mg/dl.
The subject of experiment [5] is ZDF (fa/fa) rats. Nature of the experiment: Onset and progression of DM-2 in male ZDF (fa/fa) rats: fasting plasma glucose, insulin, adiponectin. Format: in vivo, rat. How it is done:
This example outlies studies carried out for the evaluation of the effects of these peptides in the prevention of onset and progression of DM-2. […] Baseline fasting plasma was collected prior to peptide administration. Biweekly injections (6 for Ac-hE18A-NH2 group and 5 for L-4F group were administered before day 18). From day 18-day 33, no additional peptide/vehicle injection were performed. […] (B) Corresponding insulin levels are depicted in the control and Ac-hE18A-NH2 group only. Control animals become relatively insulin resistant at day 18 as depicted by hyperinsulinemia and hyperglycemia. […] Data are expressed as Mean±SEM; *p<0.05.
Relatively infrequent injections (biweekly) of the peptides as compared to vehicle were able to improve glucose homeostasis in the ZDF rats. Form the studies it was determined that adiponectin levels in the peptide treated animals were much higher than in controls at day 33 (5.7±1 vs. […], p<0.05). […] Adiponectin also prevents the production and action of pro-inflammatory TNF-α and IL-6 and induces anti-inflammatory cytokine IL-10 and IL-1 receptor antagonist. A summary of the potential effects of the peptides on liver, pancreas, peripheral tissue, blood and blood vessel are depicted in FIG. 5.

Where [6] appears, read: 1% cholesterol fed NZW rabbits, 3 mg/kg i.v./week, day 51.
Where [7] appears, read: 5 mg/kg i.v. biweekly, day 18, versus control.
[8] abbreviates: day 33, no additional peptide after day 18.

With “Ac-LRKLRKRLLRDWLKAFYDKVAEKLKEAF-NH2 [Ac-hE18A-NH2]”, in experiment [1] (setting [6]), the atherogenic lipoproteins entry is given as “decrease” and the “atherosclerosis (en face analysis of Oil Red O stained aortas)” value was “inhibits”. Moreover, the plasma turbidity result in experiment [1] (1% cholesterol fed NZW-rabbits, 3 mg/kg intravenously/week) is “clears”. For the same substance, in experiment [2], the “HDL associated Paraoxonase (PON) activity” value is listed as “increase” and the “lipid hydroperoxides (LOOH)” value is listed as “decrease”. Besides, in experiment [3], the LDL cholesterol result was “dramatic decrease”, the aortic endothelial function result was “improved” and the total cholesterol result is reported as “dramatic decrease”. For the same substance, the plasma cholesterol levels in experiment [4] is approximately 1000 mg/dL. In experiment [5] (5 mg/kg i.v. biweekly until day 18, day 18 and day 33, versus control), the fasting plasma glucose result was “only mild increase”. The plasma glucose levels result in experiment [5] (5 mg/kg i.v. biweekly, day 18) is “normal”. Moreover, in experiment [5] (setting [7]), the insulin resistance entry is given as “much less” and the plasma insulin levels result is recorded as “lower”. Besides, the beta cell function entry in experiment [5] (day 18 to day 33, no additional peptide) was “relatively preserved”. For the same substance, in experiment [5] (setting [8]), the plasma glucose entry is “milder increase” and the plasma insulin entry is recorded as “increase”.
